Earlier results on two molecules are cited in patent US20110293690A1, “Biodegradable Polymer Encapsulated Microsphere Particulate Film and Method of Making Thereof” (Tyco Healthcare Group LP, priority 2010, published 2011).

The conditions of data set [1]: in water, stated in words.

Where a name gives a salt, the structure may show the parent alone. Read-outs that look alike come from different tables or passages of the source.

With `CCCCN1CCCCC1C(=O)Nc1c(C)cccc1C` (stereo not drawn) [Bupivacaine, bupivacaine], the pKa entry is “about 8.1”. Moreover, in data set [1] (listed as free base form of bupivacaine), the aqueous solubility result was “lower aqueous solubility”. As for `CCCCN1CCCCC1C(=O)Nc1c(C)cccc1C` (stereo not drawn) [salt form of bupivacaine, bupivacaine hydrochloride], in data set [1] (hydrochloride), the aqueous solubility entry was “soluble in water”.
